Values after ≈ are worked out from the molar mass of the structure shown.
Assays:
Type in all cases: functional
Staphylococcus aureus = test: Antibacterial activity against Staphylococcus aureus assessed as growth inhibition after 24 hr by two fold serial dilution method; settings: for MIC: Staphylococcus aureus, 24 h
Escherichia coli = test: Antibacterial activity against Escherichia coli assessed as growth inhibition after 24 hr by two-fold serial dilution method; settings: for MIC: Escherichia coli, 24 h
Bacillus subtilis = test: Antibacterial activity against Bacillus subtilis assessed as growth inhibition after 24 hr by two fold serial dilution method
Pseudomonas aeruginosa = test: Antibacterial activity against Pseudomonas aeruginosa assessed as growth inhibition after 24 hr by two-fold serial dilution method
HOP-92 = test: Growth inhibition of Homo sapiens (human) HOP92 cells at 10 uM after 48 hr by coulter counter analysis; settings: HOP-92, 48 h, read-out: GI
SNB-75 = test: Growth inhibition of Homo sapiens (human) SNB75 cells at 10 uM after 48 hr by coulter counter analysis; settings: SNB-75, 48 h, read-out: GI
MCF7 = test: Growth inhibition of Homo sapiens (human) MCF7 cells at 10 uM after 48 hr by coulter counter analysis; settings: MCF7, 48 h, read-out: GI
UO-31 = test: Growth inhibition of Homo sapiens (human) UO31 cells at 10 uM after 48 hr by coulter counter analysis; settings: UO-31, 48 h, read-out: GI
NCI-H522 = test: Growth inhibition of Homo sapiens (human) NCI-H522 cells at 10 uM after 48 hr by coulter counter analysis; settings: NCI-H522, 48 h, read-out: GI
SN12C = test: Growth inhibition of Homo sapiens (human) SN12C cells at 10 uM after 48 hr by coulter counter analysis; settings: read-out: GI

| SMILES | -logMIC (Staphylococcus aureus) | MIC (Staphylococcus aureus) [µg/mL] | -logMIC (Escherichia coli) | MIC (Escherichia coli) [µg/mL] | MIC (Bacillus subtilis) [µg/mL] | MIC (Pseudomonas aeruginosa) [µg/mL] | inhibition of growth at 10 µM (HOP-92) [%] | inhibition of growth at 10 µM (SNB-75) [%] | inhibition of growth at 10 µM (MCF7) [%] | inhibition of growth at 10 µM (UO-31) [%] | inhibition of growth at 10 µM (NCI-H522) [%] | inhibition of growth at 10 µM (SN12C) [%] |
| --- | --- | --- | --- | --- | --- | --- | --- | --- | --- | --- | --- | --- |
| COc1cc(OC)c(N2C(=O)c3nccnc3C2=O)c(OC)c1 | 4.56 | 8.7 (≈ 27.6 µM) | 4.54 | 9 (≈ 28.5 µM) | 9 (≈ 28.5 µM) | > 100 |  |  |  |  |  |  |
| Cc1cc(Cl)c(N2C(=O)c3nccnc3C2=O)c(Cl)c1 | 4.19 | 20 (≈ 64.9 µM) | 4.65 | 6.9 (≈ 22.4 µM) | 20 (≈ 64.9 µM) | 20 (≈ 64.9 µM) |  |  |  |  |  |  |
| O=C1c2cccc3cccc(c23)C(=O)N1CCN1CCOCC1 | 3.49 | > 100 | 3.49 | > 100 | > 100 | > 100 |  |  |  |  |  |  |
| O=C1c2cccc3cccc(c23)C(=O)N1CCc1ccccn1 | 3.48 | > 100 | 3.48 | > 100 | > 100 | > 100 |  |  |  |  |  |  |
| O=C1c2cccc3cccc(c23)C(=O)N1c1ccc([N+](=O)[O-])cc1 | 5.04 | 2.9 (≈ 9.11 µM) | 4.9 | 4 (≈ 12.6 µM) | 2.9 (≈ 9.11 µM) | > 100 |  |  |  |  |  |  |
| O=C1c2cccc3cccc(c23)C(=O)N1c1ccc([N+](=O)[O-])cc1[N+](=O)[O-] | 5.31 | 1.8 (≈ 4.95 µM) | 4.96 | 4 (≈ 11 µM) | 2.2 (≈ 6.06 µM) | > 100 |  |  |  |  |  |  |
| COc1cc(OC)c(N2C(=O)c3cccc4cccc(c34)C2=O)c(OC)c1 | 5.26 | 2 (≈ 5.5 µM) | 5.16 | 2.5 (≈ 6.88 µM) | 2.2 (≈ 6.05 µM) | > 100 | 30.2 | 13.2 | 6.42 | 21 | 13.6 | 19.3 |
| Cc1cc(Cl)c(N2C(=O)c3cccc4cccc(c34)C2=O)c(Cl)c1 | 4.29 | 18.2 (≈ 51.1 µM) | 5.21 | 2.2 (≈ 6.18 µM) | 20 (≈ 56.1 µM) | 10 (≈ 28.1 µM) | -15.5 | 6.64 | -1.03 | 26.8 | 5.32 | 3.72 |
| O=C1c2cccc3cccc(c23)C(=O)N1c1c(Cl)cc(Cl)cc1Cl | 4.32 | 18 (≈ 47.8 µM) | 5.27 | 2 (≈ 5.31 µM) | 20 (≈ 53.1 µM) | 10 (≈ 26.6 µM) |  | 39.1 | 3.55 | 20.9 | 4.37 | 6.09 |
| O=C1c2nccnc2C(=O)N1CCc1ccccn1 | 3.41 | > 100 | 3.41 | > 100 | > 100 | > 100 | -3.5 | 11.8 | 2.87 | 20.9 | 3.84 |  |
| O=C1c2nccnc2C(=O)N1CCN1CCOCC1 | 3.42 | > 100 | 3.42 | > 100 | > 100 | > 100 |  |  |  |  |  |  |
| O=C(O)c1ccc(N2C(=O)c3nccnc3C2=O)cc1 | 4.5 | 8.5 (≈ 31.6 µM) | 4.39 | 10.9 (≈ 40.5 µM) | 8 (≈ 29.7 µM) | > 100 |  |  |  |  |  |  |
| CC1(C)S[C@@H]2[C@H](NC(=O)[C@H](N)c3ccccc3)C(=O)N2[C@H]1C(=O)O [AMPICILLIN] |  | 2.2 (≈ 6.3 µM) |  | 2.2 (≈ 6.3 µM) | 2.2 (≈ 6.3 µM) | 10 (≈ 28.6 µM) |  |  |  |  |  |  |

From ChEMBL document CHEMBL3046429, “Synthesis, molecular modeling study, preliminary antibacterial, and antitumor evaluation of N-substituted naphthalimides and their structural analogues” (2013)
